Reference: patent US20240374591A1, “CEREBLON BINDING COMPOUNDS, COMPOSITIONS THEREOF, AND METHODS OF TREATMENT THEREWITH” (CELGENE CORPORATION, priority 2021, published 2024)

Molecular target: T1, AR in VCaP cells (Homo sapiens, UniProt P10275)
T1 construct: endogenous in cells; host or cells: VCaP cells
T1 sequence (P10275 1-920): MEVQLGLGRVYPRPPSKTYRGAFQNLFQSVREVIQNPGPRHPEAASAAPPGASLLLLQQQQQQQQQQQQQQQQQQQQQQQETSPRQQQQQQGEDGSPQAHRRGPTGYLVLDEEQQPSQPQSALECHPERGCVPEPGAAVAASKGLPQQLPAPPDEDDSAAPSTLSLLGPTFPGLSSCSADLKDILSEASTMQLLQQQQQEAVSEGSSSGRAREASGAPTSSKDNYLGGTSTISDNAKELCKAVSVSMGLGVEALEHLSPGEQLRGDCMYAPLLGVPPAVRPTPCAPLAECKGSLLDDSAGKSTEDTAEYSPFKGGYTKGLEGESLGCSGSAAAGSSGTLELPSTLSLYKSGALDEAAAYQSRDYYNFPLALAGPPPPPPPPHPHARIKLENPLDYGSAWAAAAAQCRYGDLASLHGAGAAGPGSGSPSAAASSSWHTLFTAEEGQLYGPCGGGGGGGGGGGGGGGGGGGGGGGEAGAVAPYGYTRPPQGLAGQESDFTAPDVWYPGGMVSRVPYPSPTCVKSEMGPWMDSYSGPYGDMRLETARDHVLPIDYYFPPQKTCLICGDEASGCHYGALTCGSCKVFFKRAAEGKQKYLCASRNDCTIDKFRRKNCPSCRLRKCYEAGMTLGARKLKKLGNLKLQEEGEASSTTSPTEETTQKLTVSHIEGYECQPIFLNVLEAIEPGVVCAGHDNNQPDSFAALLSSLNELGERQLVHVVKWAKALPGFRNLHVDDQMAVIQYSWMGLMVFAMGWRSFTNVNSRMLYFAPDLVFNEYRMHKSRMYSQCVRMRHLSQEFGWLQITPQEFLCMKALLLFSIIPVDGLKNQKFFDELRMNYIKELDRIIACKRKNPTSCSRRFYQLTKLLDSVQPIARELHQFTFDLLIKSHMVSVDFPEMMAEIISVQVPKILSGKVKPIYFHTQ
Assay: VCAP AR Degradation Assay (AR ELISA, 24 h)
Assay type: cell-based
Conditions: for DC50: concentration giving 50% AR degradation vs DMSO control; for remaining activity at up to 5 µM: lowest measured AR level normalized to DMSO control, top concentration 5 μM, read-out: Y
Experimental: VCAP AR Degradation Assay. Test compounds were pre-dispensed into a Corning CellBind 96-well clear bottom plate (Cat #3300) using an acoustic dispenser to make a 10-point concentration series at 1:3 dilution for each compound. The final top concentration of each compound was 5 μM. DMSO at a final concentration of 0.1% was used as a control. VCaP cells cultured in DMEM with 8% fetal bovine serum (FBS) were seeded at 50K cells per well in a 200 μL volume into the compound plate and incubated at 37° C. in a CO2 incubator for 24 h. The medium was carefully removed from the cells and the plate was placed on ice. One hundred μL of ice-cold 1× cell lysis buffer from Cell Signaling Technologies (Cat #9803) was added to each well of the cells and the plate was incubated at 4° C. on a shaker for 1 h. Fifteen μL of cell lysate was used for AR ELISA detection using a PathScan Total Sandwich AR ELISA kit (Cell Signaling Technology, Cat #12580). AR levels in compound-treated wells were normalized to that of DMSO control and expressed as percent of control (PoC) (y). A Four Parameter Logistic Model (Sigmoidal Dose-Response Model) was used to determine the compound's DC50, and EC50, using the following equation: […]
The lowest measured AR level normalized to DMSO control in response to compound treatment, termed Y value, was used to characterize the compound-mediated AR degradation efficiency.

SMILES | DC50 [nM] | remaining activity at up to 5 µM [%]
C[C@@H]1C[C@H](OCC[C@H]2CC[C@H](N3C(=S)N(c4ccc(C#N)c(C(F)(F)F)c4)C(=O)C3(C)C)CC2)C[C@H](C)N1CC(=O)Nc1ccc(C2CCC(=O)NC2=O)nc1 (stereo partly drawn) [Cmpd 27, 2-((2R,4r,6S)-4-(2-((trans)-4-(3-(4-Cyano-3-(trifluoromethyl)phenyl)-5,5-dimethyl-4-oxo-2-thioxoimidazolidin-1-yl)cyclohexyl)ethoxy)-2,6-dimethylpiperidin-1-yl)-N-(6-(2,6-dioxopiperidin-3-yl)pyridin-3-yl)acetamide] | 5 to 10 | 20 to 30
C[C@@H]1C[C@H](OCC[C@H]2CC[C@H](N3C(=S)N(c4cnc(C#N)c(C(F)(F)F)c4)C(=O)C3(C)C)CC2)C[C@H](C)N1CC(=O)Nc1ccc(C2CCC(=O)NC2=O)nc1 (stereo partly drawn) [Cmpd 28, 2-((2R,4r,6S)-4-(2-((trans)-4-(3-(6-Cyano-5-(trifluoromethyl)pyridin-3-yl)-5,5-dimethyl-4-oxo-2-thioxoimidazolidin-1-yl)cyclohexyl)ethoxy)-2,6-dimethylpiperidin-1-yl)-N-(6-(2,6-dioxopiperidin-3-yl)pyridin-3-yl)acetamide] | ≤ 5 | 20 to 30
C[C@@H]1C[C@H](OCCO[C@H]2CC[C@H](N3C(=S)N(c4ccc(C#N)c(C(F)(F)F)c4)C(=O)C3(C)C)CC2)C[C@H](C)N1CC(=O)Nc1ccc(C2CCC(=O)NC2=O)nc1 (stereo partly drawn) [Cmpd 29, 2-((2R,4r,6S)-4-(2-(((trans)-4-(3-(4-Cyano-3-(trifluoromethyl)phenyl)-5,5-dimethyl-4-oxo-2-thioxoimidazolidin-1-yl)cyclohexyl)oxy)ethoxy)-2,6-dimethylpiperidin-1-yl)-N-(6-(2,6-dioxopiperidin-3-yl)pyridin-3-yl)acetamide] | ≤ 5 | 20 to 30
C[C@@H]1C[C@H](OCCO[C@H]2CC[C@H](N3C(=S)N(c4cnc(C#N)c(C(F)(F)F)c4)C(=O)C3(C)C)CC2)C[C@H](C)N1CC(=O)Nc1ccc(C2CCC(=O)NC2=O)nc1 (stereo partly drawn) [Cmpd 30, 2-((2R,4r,6S)-4-(2-(((trans)-4-(3-(6-Cyano-5-(trifluoromethyl)pyridin-3-yl)-5,5-dimethyl-4-oxo-2-thioxoimidazolidin-1-yl)cyclohexyl)oxy)ethoxy)-2,6-dimethylpiperidin-1-yl)-N-(6-(2,6-dioxopiperidin-3-yl)pyridin-3-yl)acetamide] | ≤ 5 | 0 to 20
CC1(C)C(=O)N(c2ccc(C#N)c(C(F)(F)F)c2)C(=S)N1[C@H]1CC[C@H](OCCC2CCN(CC(=O)Nc3ccc(C4CCC(=O)NC4=O)nc3)CC2(F)F)CC1 (stereo partly drawn) [Cmpd 31, 2-(4-(2-(((trans)-4-(3-(4-Cyano-3-(trifluoromethyl)phenyl)-5,5-dimethyl-4-oxo-2-thioxoimidazolidin-1-yl)cyclohexyl)oxy)ethyl)-3,3-difluoropiperidin-1-yl)-N-(6-(2,6-dioxopiperidin-3-yl)pyridin-3-yl)acetamide] | ≤ 5 | 0 to 20
CC1(C)C(=O)N(c2cnc(C#N)c(C(F)(F)F)c2)C(=S)N1[C@H]1CC[C@H](OCCC2CCN(CC(=O)Nc3ccc(C4CCC(=O)NC4=O)nc3)CC2(F)F)CC1 (stereo partly drawn) [Cmpd 32, 2-(4-(2-(((trans)-4-(3-(6-Cyano-5-(trifluoromethyl)pyridin-3-yl)-5,5-dimethyl-4-oxo-2-thioxoimidazolidin-1-yl)cyclohexyl)oxy)ethyl)-3,3-difluoropiperidin-1-yl)-N-(6-(2,6-dioxopiperidin-3-yl)pyridin-3-yl)acetamide] | ≤ 5 | 0 to 20
